Measurements published in PubChem BioAssay (NCI).
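Here, GI50 denotes the concentration required for 50% inhibition of growth. TGI: total growth inhibition.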

How the values were obtained:
Assay in all cases: DTP human tumour cell line panel, 384-well format
A498 renal = system: A498 renal
KM12 colon = system: KM12 colon
RXF 393 renal = system: RXF 393 renal
SF-268 CNS = system: SF-268 CNS
BT-549 breast = system: BT-549 breast
SK-OV-3 ovarian = system: SK-OV-3 ovarian
SNB-75 CNS = system: SNB-75 CNS
EKVX NSCLC = system: EKVX NSCLC
CAKI-1 renal = system: CAKI-1 renal
HT29 colon = system: HT29 colon
SF-295 CNS = system: SF-295 CNS
K-562 leukemia = system: K-562 leukemia
SN12C renal = system: SN12C renal
LOX IMVI melanoma = system: LOX IMVI melanoma
MOLT-4 leukemia = system: MOLT-4 leukemia
MDA-MB-435 melanoma = system: MDA-MB-435 melanoma
NCI/ADR-RES ovarian = system: NCI/ADR-RES ovarian
M14 melanoma = system: M14 melanoma
OVCAR-5 ovarian = system: OVCAR-5 ovarian
COLO 205 colon = system: COLO 205 colon
OVCAR-8 ovarian = system: OVCAR-8 ovarian
HL-60(TB) leukemia = system: HL-60(TB) leukemia
OVCAR-4 ovarian = system: OVCAR-4 ovarian
SK-MEL-2 melanoma = system: SK-MEL-2 melanoma
SR leukemia = system: SR leukemia
T-47D breast = system: T-47D breast
SW-620 colon = system: SW-620 colon
PC-3 prostate = system: PC-3 prostate
DU-145 prostate = system: DU-145 prostate
HCC-2998 colon = system: HCC-2998 colon
SNB-19 CNS = system: SNB-19 CNS
HS 578T breast = system: HS 578T breast
RPMI-8226 leukemia = system: RPMI-8226 leukemia
IGROV1 ovarian = system: IGROV1 ovarian
MCF7 breast = system: MCF7 breast
SK-MEL-28 melanoma = system: SK-MEL-28 melanoma
HCT-116 colon = system: HCT-116 colon
NCI-H522 lung = system: NCI-H522 lung
ACHN renal = system: ACHN renal
NCI-H23 lung = system: NCI-H23 lung
MDA-MB-231 breast = system: MDA-MB-231 breast
A549 NSCLC = system: A549 NSCLC
UACC-257 melanoma = system: UACC-257 melanoma
MALME-3M melanoma = system: MALME-3M melanoma
U251 glioblastoma = system: U251 glioblastoma
HCT-15 colon = system: HCT-15 colon
NCI-H322M lung = system: NCI-H322M lung
SF-539 CNS = system: SF-539 CNS
TK-10 renal = system: TK-10 renal
UO-31 renal = system: UO-31 renal
786-0 renal = system: 786-0 renal
UACC-62 melanoma = system: UACC-62 melanoma
SK-MEL-5 melanoma = system: SK-MEL-5 melanoma
HOP-92 NSCLC = system: HOP-92 NSCLC
MDA-MB-468 breast = system: MDA-MB-468 breast
NCI-H226 lung = system: NCI-H226 lung
HOP-62 NSCLC = system: HOP-62 NSCLC
NCI-H460 NSCLC = system: NCI-H460 NSCLC
OVCAR-3 ovarian = system: OVCAR-3 ovarian

## CC(C)C[C@H](NC(=O)CNC(=O)c1cc(Cl)ccc1Cl)B1OC(=O)CC(CC(=O)O)(C(=O)O)O1 (stereo partly drawn)
A498 renal
  GI50: < 23.7 nM
  TGI: 191 nM
KM12 colon
  GI50: 54.7 nM
  TGI: 148 nM
RXF 393 renal
  GI50: < 14 nM
  TGI: 27.1 nM
SF-268 CNS
  GI50: 23.6 nM
  TGI: 53.8 nM
BT-549 breast
  GI50: 16.1 nM
  TGI: 30.8 nM
SK-OV-3 ovarian
  GI50: 204 nM
  TGI: 1550 nM
SNB-75 CNS
  GI50: 47.4 nM
  TGI: 118 nM
EKVX NSCLC
  GI50: 97.4 nM
  TGI: 448 nM
CAKI-1 renal
  GI50: < 20.4 nM
  TGI: 152 nM
HT29 colon
  GI50: 23.4 nM
  TGI: 62.4 nM
SF-295 CNS
  GI50: 30.5 nM
  TGI: 88.4 nM
K-562 leukemia
  GI50: 17.2 nM
  TGI: 35 nM
SN12C renal
  GI50: 87.3 nM
  TGI: 263 nM
LOX IMVI melanoma
  GI50: 33.9 nM
  TGI: 125 nM
MOLT-4 leukemia
  GI50: < 12.8 nM
  TGI: < 17.4 nM
MDA-MB-435 melanoma
  GI50: < 14.8 nM
  TGI: 28.3 nM
NCI/ADR-RES ovarian
  GI50: 189 nM
  TGI: 448 nM
M14 melanoma
  GI50: 16.5 nM
  TGI: 32.6 nM
OVCAR-5 ovarian
  GI50: 50.5 nM
  TGI: 181 nM
COLO 205 colon
  GI50: 58 nM
  TGI: 557 nM
OVCAR-8 ovarian
  GI50: 66.8 nM
  TGI: 158 nM
HL-60(TB) leukemia
  GI50: < 13.4 nM
  TGI: 19.9 nM
OVCAR-4 ovarian
  GI50: 53.2 nM
  TGI: 117 nM
SK-MEL-2 melanoma
  GI50: 21.5 nM
  TGI: 42 nM
SR leukemia
  GI50: < 17.7 nM
  TGI: < 21.6 nM
T-47D breast
  GI50: 25.6 nM
  TGI: 70.8 nM
SW-620 colon
  GI50: < 15.3 nM
  TGI: 33.2 nM
PC-3 prostate
  GI50: 48.1 nM
  TGI: 113 nM
DU-145 prostate
  GI50: 44.1 nM
  TGI: 233 nM
HCC-2998 colon
  GI50: 51.5 nM
  TGI: 101 nM
SNB-19 CNS
  GI50: 59.4 nM
  TGI: 272 nM
HS 578T breast
  GI50: 16.7 nM
  TGI: 32.7 nM
RPMI-8226 leukemia
  GI50: < 13.2 nM
  TGI: < 17.7 nM
IGROV1 ovarian
  GI50: 70.6 nM
  TGI: 178 nM
MCF7 breast
  GI50: < 21.3 nM
  TGI: 619 nM
SK-MEL-28 melanoma
  GI50: < 14.4 nM
  TGI: 25.3 nM
HCT-116 colon
  GI50: < 15.9 nM
  TGI: 34.7 nM
NCI-H522 lung
  GI50: 15.7 nM
  TGI: 31.1 nM
ACHN renal
  GI50: < 20.3 nM
  TGI: 63.7 nM
NCI-H23 lung
  GI50: 26.8 nM
  TGI: 75.5 nM
MDA-MB-231 breast
  GI50: 33.3 nM
  TGI: 86.3 nM
A549 NSCLC
  GI50: 106 nM
  TGI: 1510 nM
UACC-257 melanoma
  GI50: 17.3 nM
  TGI: 33.3 nM
MALME-3M melanoma
  GI50: < 13.7 nM
  TGI: 27.5 nM
U251 glioblastoma
  GI50: 98.5 nM
  TGI: 472 nM
HCT-15 colon
  GI50: 36.7 nM
  TGI: 101 nM
NCI-H322M lung
  GI50: 351 nM
  TGI: 2020 nM
SF-539 CNS
  GI50: 15.1 nM
  TGI: 31.3 nM
TK-10 renal
  GI50: < 18 nM
  TGI: 53 nM
UO-31 renal
  GI50: 18 nM
  TGI: 36.6 nM
786-0 renal
  GI50: 24 nM
  TGI: 91.6 nM
UACC-62 melanoma
  GI50: 25.6 nM
  TGI: 66.1 nM
SK-MEL-5 melanoma
  GI50: < 15.5 nM
  TGI: 28.1 nM
HOP-92 NSCLC
  GI50: 30 nM
  TGI: 71.8 nM
MDA-MB-468 breast
  GI50: < 14.4 nM
  TGI: < 20.6 nM
NCI-H226 lung
  GI50: < 13.5 nM
  TGI: 24.5 nM
HOP-62 NSCLC
  GI50: 42.3 nM
  TGI: 164 nM
NCI-H460 NSCLC
  GI50: 92.3 nM
  TGI: 317 nM
OVCAR-3 ovarian
  GI50: < 14.3 nM
  TGI: 26.4 nM
